We go through 1 compound from US10603319B2, “Pyrimidine derivatives and their use in treating or preventing a respiratory syncytial virus infection” (REVIRAL LIMITED, priority 2016, dated 2020).

In data set [1] the test system is RSV A2. The data set can be described thus: Plaque Reduction Assay 1 (Vero cells, immunostaining). Format: cell-based. Conditions: two replicate values, read-out: RSV Plaque Reduction assays A2 (PRNT1) (n = 2) IC50. On the procedure:
Plaque Reduction Assay 1: Vero cells were seeded in 96-well plates in a volume of 100 μL of Optimem supplemented with 3% FCS at a concentration of 4×10^4 cells per well. After an overnight incubation at 37° C. in a humidified 5% CO2 atmosphere, the monolayer of cells should be approximately 90% confluent. Antiviral compounds were titrated in pre-warmed Serum Free (SF) Optimem in a U-bottom 96 well plate. For compounds in a DMSO solution, titration in 100% DMSO was performed first and each concentration added individually to a 2× final concentration at 4% DMSO in SF media before mixing with virus (2% final DMSO with virus). Media was then removed from cells and replaced with PBS (100 μl/well). RSV stock was thawed and diluted in SF Optimem media to 4000 PFU/mLl. An equal volume of virus was added to compounds on the titration plate. PBS was removed from cells which were then inoculated with the virus/compound solution (50 μL/well). Cells were incubated for 2 h in a 37° C.+5% CO2 humidified incubator to allow infection. Inoculum was removed and media (Optimem+1% FCS) added to cells (100 μl/well). Cells were subsequently incubated for 48 h at 37° C.+5% CO2 in a humidified incubator. Immunostaining Procedure: Media was removed from cells and the monolayer washed with PBS. Cells were fixed with ice cold 80% Acetone in PBS (100 μl/well) for 20 mins at −20° C. Fixative was removed and cells are dried for 30 mins with plates inverted. Blocking solution (5% skim milk powder in PBS-T) was added to cells (150 μL/well) and plates were incubated for 30 mins at room temperature. Blocking solution was removed and plates washed once with PBS-T. Primary antibody in blocking solution was added to plates (50 μl/well) and incubated for 1 h at 37° C. Plates were then washed 3 times with PBS-T. Secondary antibody in blocking solution was added to plates ([…]) and incubated for 1 h at 37° C. in the dark. Plates were washed as above and then dried for 10 mins. Plates were scanned on the Odyssey Imager (Li-Cor Biosciences) at a resolution of […], medium quality and level 5 intensity in the […]. Data Analysis: Images obtained were saved and plaque numbers counted with the aid of computer imaging software. EC50 values for compounds were derived from dose response curves [three variable log(inhibitor) vs response] obtained using Graphpad Prism software.
On the technique in general: Plaque reduction counts the foci of infection that form in a cell layer.

Data set [2] has as its system RSV A2 VR-1540. The experiment in a line: Plaque Reduction Assay 2 (HEp-2 cells, virospot count). The data set is classed as cell-based. Conditions: human respiratory syncytial virus, 24 h; RSV A2, HEp-2 cells, 1 day. The text has this: Plaque Reduction Assay 2:
This RSV plaque reduction assay is an infectivity assay which allows quantification of the number of infectious units in a distinct foci of RSV infection. This is indicated by zones of viral antigen detected by specific antibody staining within a monolayer of otherwise healthy tissue culture cells. As each plaque originates from a single infectious virus particle an accurate calculation of the anti-viral effect can be obtained by counting plaques in the presence and absence of an anti-viral compound. HEp-2 cells (ATCC, CCL23) were passaged in flasks and seeded in 96-well plates in DMEM containing antibiotics and supplemented with 10% FBS. During inoculation and subsequent incubation, cells were cultured in DMEM containing 3% FBS. 100 plaque forming unit (PFU)/well of RSV (RSV A2 VR-1540) was mixed with ten serial dilutions of compound. Subsequently, 100 μL of the virus/compound mixtures was added to confluent HEp-2 cell monolayers. The cells and virus/compound mixtures were incubated at 35° C. in a humidified 5% CO2 incubator for 1 day.
Cells were washed twice with PBS before adding 50% v/v EtOH/MeOH, and then stored at −20° C. On the day of the staining, fixative was first removed from the plates. Plates were washed 3× with PBS. A pre-titrated amount of the primary antibody was added in 60 μL PBS/2% milk powder, and plates incubated for 1 h at rt. The plates were washed 3× with PBS/0.05% Tween20 before addition of goat anti-mouse horse radish peroxidase in 60 μL PBS/2% milk powder, and incubated for 1 h at rt. Following three wash steps with PBS/0.05% Tween20, 60 μL ready-to-use TrueBlue was added and plates were incubated at rt for 10-15 min before adding MilliQ water. Plates were washed once with water, incubated for 30-60 min and after removal of water, air-dried in the dark.
Plates were scanned and analyzed using the Immunospot S6 UV analyzer, which is equipped with BioSpot analysis software for counting immunostained plaques (virospots). Plaque counts were used to calculate % infection relative to the mean of the spot count (SC) in the virus control wells for RSV. IC50/IC90 values were calculated as 50% or 90% reduction in signal, respectively, by interpolation of inhibition curves fitted with a 4-parameter nonlinear regression with a variable slope in GraphPad 5.0 (Prism).

Data set [3] is described as follows: Liver microsomal stability, rat. The data set is classed as in vitro ADME, Sprague Dawley rats. As to conditions: male, Sprague Dawley, pooled liver microsomes, pH 7.4, 0.5 mg/mL protein, read-out: Liver Microsomal Stability (T1/2/mins) rat. On the procedure: Microsomal Incubation: Experimental Procedure
Pooled human liver microsomes (pooled male and female), pooled rat liver microsomes (male Sprague Dawley rats) and pooled dog liver microsomes (male Beagle dog) are purchased from a reputable commercial supplier and stored at −80° C. prior to use.
Microsomes (final protein concentration 0.5 mg/mL), 0.1 M phosphate buffer pH 7.4 and test compound (final substrate concentration 3 μM; final DMSO concentration 0.25%) are pre-incubated at 37° C. prior to the addition of NADPH (final concentration 1 mM) to initiate the reaction. The final incubation volume is 50 μL. A control incubation is included for each compound tested where 0.1 M phosphate buffer pH 7.4 is added instead of NADPH (minus NADPH). Two control compounds are included with each species. All incubations are performed singularly for each test compound.
Compounds are incubated for 0, 5, 15, 30 and 45 min. The control (minus NADPH) is incubated for 45 min only. […] Following protein precipitation, the sample supernatants are combined in cassettes of up to 4 compounds, internal standard is added and samples analysed by LC-MS/MS. From a plot of ln peak area ratio (compound peak area/internal standard peak area) against time, the gradient of the line is determined. Subsequently, half-life and intrinsic clearance are calculated

Structures are written as SMILES. Where “and” joins values, the source holds several entries; their conditions need not be identical. Equal values may be shown once.

With `NC1CCN(c2ncc(CN3C(=O)C4(CC4)c4ccc(F)cc43)c(N[C@H]3CC[C@H](O)CC3)n2)C1` (stereo partly drawn) [Compound 2, 1′-((2-(3-Aminopyrrolidin-1-yl)-4-(((1r,4r)-4-hydroxycyclohexyl)amino)pyrimidin-5-yl)methyl)-6′-fluorospiro[cyclopropane-1,3′-indolin]-2′-one], the IC50 – broadly, the midpoint of a concentration-inhibition curve – in data set [1] is 18.9 nM and 4.63 nM; in data set [2], 58 nM. The half-life at 3 μM in data set [3] was 2.17 h.
